According to patent publication US20250345391A1, “COMPOSITIONS AND METHODS FOR THE TREATMENT OF SEPSIS” (Children's Hospital Medical Center, priority 2022, published 2025):

Legend:
Type in all cases: in vivo, Male C57BL/6 mice
[1] = test system: TNFα, IL-1β, IL-6, IL-10, KC, MIP-1α; assay: Plasma levels of cytokines after CLP sepsis (multiplex array); conditions: 6 h after CLP, vs vehicle
From the text: The investigation conformed to the National Institutes of Health Guide for the Care and Use of Laboratory Animals (Eighth Edition, 2011) and was approved by the Institutional Animal Care and Use Committee of the Cincinnati Children's Hospital Medical Center. Male C57BL/6 mice were obtained from Charles River Laboratories International, Inc. (Wilmington, MA). Mice were used at 3-5 months of age to mimic the equivalent for human ranges from 20-25 years (29). Male mice only were chosen for the experimentation to avoid interference from female hormonal fluctuations in sepsis responses during the estrous cycle. Mice were housed in pathogen-free conditions under a 10-h light/14-h dark cycle with free access to food and water. Mice were anesthetized with 2.0% isoflurane in 50% oxygen and polymicrobial sepsis was induced by cecal ligation and puncture (CLP) (30). After a midline laparotomy, the cecum was exteriorized, ligated and punctured twice with a 23-G needle. The cecum was then returned into the peritoneal cavity and the abdominal incision was closed. After the procedure, mice were randomly assigned to three treatment groups: a vehicle-treated group received distilled water (200 μl/mouse) intraperitoneally (i.p.); a 100 μg colivelin-treated group received the colivelin at 100 μg/kg i.p., and a 200 μg colivelin-treated group received the colivelin at 200 μg/kg i.p. at 1 h after CLP. The intraperitoneal injection was chosen to allow for a rapid uptake and bioavailability of the peptide. All groups of mice also received fluid resuscitation (35 ml/kg normal saline solution subcutaneously) immediately after, at 3 h and 12 h after the CLP procedure. To minimize pain at the surgical incision site, lidocaine hydrochloride (1%, 4 mg/kg total dose) was applied locally immediately after the procedure. […] Mice were then sacrificed at 0, 6 and 18 h after CLP. Blood, lungs, kidneys, liver, and thoracic aortas were collected for biochemical assays. Plasma levels of tumor necrosis factor-α (TNFα), interleukin (IL)-1β, IL-6, IL-10, keratinocytes-derived chemokine (KC), and macrophage inflammatory proteins (MIP-1α) were used as indices of the systemic inflammatory response and were evaluated by a commercially available multiplex array system (Milliplex, Millipore Corporation, Billerica, MA). Plasma levels of endoglin, intercellular adhesion molecule-1 (ICAM-1), P-selectin, proprotein convertase subtilisin/kexin type 9 (PCSK9), and angiopoietin-2 (Ang 2) were used as indices of endothelial injury and were evaluated by a commercially available multiplex array system (R&D Systems, Minneapolis, MN). Plasma levels of syndecan-1 were used as indices of glycocalyx damage and were evaluated by a mouse syndecan-1 sandwich-type enzyme-linked immunosorbent assay (ELISA) kit (Boster Biological Technology Co., California, US). Assays were performed using the protocols recommended by the manufacturer.

syndecan-1 = assay: Plasma syndecan-1 (glycocalyx damage) after CLP sepsis, ELISA; conditions: 6 h after CLP; colivelin 100 or 200 μg/kg i.p. at 1 h after CLP; vs vehicle; dose-independent
From the text: The investigation conformed to the National Institutes of Health Guide for the Care and Use of Laboratory Animals (Eighth Edition, 2011) and was approved by the Institutional Animal Care and Use Committee of the Cincinnati Children's Hospital Medical Center. Male C57BL/6 mice were obtained from Charles River Laboratories International, Inc. (Wilmington, MA). Mice were used at 3-5 months of age to mimic the equivalent for human ranges from 20-25 years (29). Male mice only were chosen for the experimentation to avoid interference from female hormonal fluctuations in sepsis responses during the estrous cycle. Mice were housed in pathogen-free conditions under a 10-h light/14-h dark cycle with free access to food and water. […] Plasma levels of tumor necrosis factor-α (TNFα), interleukin (IL)-1β, IL-6, IL-10, keratinocytes-derived chemokine (KC), and macrophage inflammatory proteins (MIP-1α) were used as indices of the systemic inflammatory response and were evaluated by a commercially available multiplex array system (Milliplex, Millipore Corporation, Billerica, MA). Plasma levels of endoglin, intercellular adhesion molecule-1 (ICAM-1), P-selectin, proprotein convertase subtilisin/kexin type 9 (PCSK9), and angiopoietin-2 (Ang 2) were used as indices of endothelial injury and were evaluated by a commercially available multiplex array system (R&D Systems, Minneapolis, MN). […]

lung sections = assay: Lung histopathology after CLP sepsis; conditions: 6 h after CLP; colivelin 100 or 200 μg/kg i.p. at 1 h after CLP; vs vehicle
From the text: The investigation conformed to the National Institutes of Health Guide for the Care and Use of Laboratory Animals (Eighth Edition, 2011) and was approved by the Institutional Animal Care and Use Committee of the Cincinnati Children's Hospital Medical Center. Male C57BL/6 mice were obtained from Charles River Laboratories International, Inc. (Wilmington, MA). Mice were used at 3-5 months of age to mimic the equivalent for human ranges from 20-25 years (29). Male mice only were chosen for the experimentation to avoid interference from female hormonal fluctuations in sepsis responses during the estrous cycle. Mice were housed in pathogen-free conditions under a 10-h light/14-h dark cycle with free access to food and water. Mice were anesthetized with 2.0% isoflurane in 50% oxygen and polymicrobial sepsis was induced by cecal ligation and puncture (CLP) (30). […]
Paraffin-embedded sections of thoracic aortas and lungs were stained with hematoxylin and eosin for morphological evaluation by three independent observers blinded to the treatment groups. Lung injury was also analyzed by a semiquantitative score based on the following histologic features: alveolar capillary congestion, infiltration of red blood cells and inflammatory cells into the airspace, alveolar wall thickness, and hyaline membrane formation (34). […]

[2] = colivelin 100 or 200 μg/kg i.p. at 1 h after CLP, dose-independent
[3] = colivelin 100 or 200 μg/kg i.p., trend towards reduction

For Colivelin (SALLRSIPAPAGASRLLLLTGEIDLP), which “Plasma levels of IL-10” value [1, 2] is on record?
The value was “significantly decreased”.

And the “Plasma levels of MIP-1α” value [1, 2]?
The value was “significantly decreased”.

What about the “Plasma levels of TNF-α” value [1, 2] of the same substance?
Its value is “significantly decreased”.

And the “Plasma levels of IL-1β” value [1, 3]?
Its value is “not statistically different”.

And the “Plasma levels of IL-6” value [1, 3]?
The value was “not statistically different”.

What about the “Plasma levels of KC” value ([1]; colivelin at 200 μg/kg i.p. at 1 h after CLP) of the same substance?
Its value is “significantly reduced”.

What about the “Levels of plasma syndecan-1” value (syndecan-1) of the same substance?
The value was “significantly decreased”.

What about the “Microscopic examination of hematoxylin and eosin-stained lung sections” value (lung sections) of the same substance?
Its value is “reduced infiltration of inflammatory cells and ameliorated alveolar damage”.
